Measurements published in patent US10072001B2, “Tank-binding kinase inhibitor compounds” (Gilead Sciences, Inc., priority 2014, dated 2018).

What was measured:
TBK1 = TBK1 (Homo sapiens (Human), UniProt Q9UHD2); experiment: TR-FRET kinase assay, TBK1; details: read-out: TBK1-IC50; full length recombinant TBK1 2.5 nM, 2x Km ATP, 1 μM peptide, 240 min at 25° C.; geometric mean of minimum four determinations
Sequence of TBK1 (Q9UHD2 whole entry): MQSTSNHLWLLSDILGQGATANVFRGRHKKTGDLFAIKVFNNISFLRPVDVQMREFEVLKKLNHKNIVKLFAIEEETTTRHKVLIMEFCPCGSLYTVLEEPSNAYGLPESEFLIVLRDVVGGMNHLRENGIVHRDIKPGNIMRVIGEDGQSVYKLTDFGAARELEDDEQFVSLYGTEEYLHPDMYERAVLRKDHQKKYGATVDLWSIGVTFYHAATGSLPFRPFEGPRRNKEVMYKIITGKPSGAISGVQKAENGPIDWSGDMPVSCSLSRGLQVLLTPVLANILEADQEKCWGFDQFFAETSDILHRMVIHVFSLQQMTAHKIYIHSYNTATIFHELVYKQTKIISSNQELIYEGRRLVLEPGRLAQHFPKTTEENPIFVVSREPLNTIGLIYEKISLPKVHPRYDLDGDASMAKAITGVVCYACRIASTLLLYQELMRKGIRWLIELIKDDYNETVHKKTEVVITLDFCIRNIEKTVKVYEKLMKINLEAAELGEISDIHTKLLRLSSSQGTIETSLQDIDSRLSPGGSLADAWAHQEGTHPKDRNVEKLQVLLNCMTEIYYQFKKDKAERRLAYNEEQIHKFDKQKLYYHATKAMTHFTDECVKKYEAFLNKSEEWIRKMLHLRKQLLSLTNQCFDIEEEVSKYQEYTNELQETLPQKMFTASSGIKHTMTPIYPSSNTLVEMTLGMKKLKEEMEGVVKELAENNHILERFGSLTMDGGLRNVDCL
Description: Enzymatic activity of IKKε and TBK1 was measured using a homogeneous time resolved fluorescence resonance energy transfer (TR-FRET) assay that monitors enzyme dependent phosphorylation of a biotinylated serine/threonine peptide substrate. […] TBK1 and IKKs were expressed and purified as full length recombinant proteins. Detection reagents for the assay were purchased from Cisbio. […] After an assay reaction time of 240 minutes at 25° C., reactions were terminated with EDTA.
Amount of phosphorylated peptide was determined by the addition of 125 nM streptavidin XL665 and europium cryptate labeled anti-phospho monoclonal antibody and the resulting TR-FRET signal was recorded on an Envision plate reader (Ex: 340 nm; Em: 615/665 nm; 100 μs delay and 200 μs read window). […] All IC50 values represent geometric mean values of a minimum of four determinations.

IKKε = IKKε (Homo sapiens (Human), UniProt Q14164); experiment: TR-FRET kinase assay, IKKε; type: biochemical; details: full length recombinant IKKε 0.3 nM, 2x Km ATP, 1 μM peptide, 240 min at 25° C.; geometric mean of minimum four determinations
Sequence of IKKε (Q14164 whole entry): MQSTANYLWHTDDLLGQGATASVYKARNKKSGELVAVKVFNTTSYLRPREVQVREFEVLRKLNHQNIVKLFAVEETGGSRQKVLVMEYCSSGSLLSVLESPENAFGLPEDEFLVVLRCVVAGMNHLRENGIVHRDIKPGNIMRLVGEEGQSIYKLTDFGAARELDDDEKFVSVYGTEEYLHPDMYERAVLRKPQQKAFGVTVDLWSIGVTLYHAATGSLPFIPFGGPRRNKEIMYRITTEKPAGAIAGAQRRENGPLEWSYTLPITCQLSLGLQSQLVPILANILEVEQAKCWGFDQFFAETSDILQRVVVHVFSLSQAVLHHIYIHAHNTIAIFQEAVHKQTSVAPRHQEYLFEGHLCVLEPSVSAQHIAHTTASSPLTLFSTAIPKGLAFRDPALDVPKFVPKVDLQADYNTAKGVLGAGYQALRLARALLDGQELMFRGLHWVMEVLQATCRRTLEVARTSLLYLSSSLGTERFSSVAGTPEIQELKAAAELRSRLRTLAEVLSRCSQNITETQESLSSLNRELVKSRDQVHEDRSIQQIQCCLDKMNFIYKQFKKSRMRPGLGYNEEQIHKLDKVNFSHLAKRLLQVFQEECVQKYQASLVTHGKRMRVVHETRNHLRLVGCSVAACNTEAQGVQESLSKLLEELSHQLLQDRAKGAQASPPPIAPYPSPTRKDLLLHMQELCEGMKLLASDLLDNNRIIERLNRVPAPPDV
From the text: Biological Assay for TBK1 and IKKs:

SMILES: COc1cc(-c2cc3c(-c4ccc(OC5CCN(C(=O)CO)CC5)c(C#N)c4)ncnc3[nH]2)ccc1N1CCOCC1 [Example 125, 2-((1-(2-hydroxyacetyl)piperidin-4-yl)oxy)-5-(6-(3-methoxy-4-morpholinophenyl)-7H-pyrrolo[2,3-d]pyrimidin-4-yl)benzonitrile]
- IC50 (TBK1): 0.9 nM
- IC50 (IKKε): 2.62 nM

SMILES: N#Cc1cc(-c2cc3c(-c4ccc(OC5CCOCC5)c(C#N)c4)ccnc3[nH]2)ccc1OC1CCOCC1 [Example 62, 5,5′-(1H-pyrrolo[2,3-b]pyridine-2,4-diyl)bis(2-((tetrahydro-2H-pyran-4-yl)oxy)benzonitrile)]
- IC50 (TBK1): 24.1 nM
- IC50 (IKKε): 25.3 nM

SMILES: O=C1NCc2cc(-c3ncnc4[nH]c(-c5ccc(N6CCOCC6)cc5)cc34)ccc21 [Example 221, 5-(6-(4-morpholinophenyl)-7H-pyrrolo[2,3-d]pyrimidin-4-yl)isoindolin-1-one]
- IC50 (TBK1): 1000 nM
- IC50 (IKKε): 1000 nM

SMILES: CC(C)(O)c1cccc(-c2cc3c(-c4ccc(OC5CCOCC5)c(C#N)c4)ccnc3[nH]2)c1 [Example 68, 5-(2-(3-(2-hydroxypropan-2-yl)phenyl)-1H-pyrrolo[2,3-b]pyridin-4-yl)-2-((tetrahydro-2H-pyran-4-yl)oxy)benzonitrile]
- IC50 (TBK1): 10.6 nM
- IC50 (IKKε): 22.5 nM

SMILES: N#Cc1cc(-c2ccnc3[nH]c(C(=O)N4CCOCC4)cc23)ccc1OC1CCOCC1 [Example 116, 5-(2-(morpholine-4-carbonyl)-1H-pyrrolo[2,3-b]pyridin-4-yl)-2-((tetrahydro-2H-pyran-4-yl)oxy)benzonitrile]
- IC50 (TBK1): 1000 nM
- IC50 (IKKε): 667 nM

SMILES: CNC(=O)c1cccc(-c2cc3c(-c4ccc(OC5CCOCC5)c(C#N)c4)ccnc3[nH]2)c1 [Example 40, 3-(4-(3-cyano-4-((tetrahydro-2H-pyran-4-yl)oxy)phenyl)-1H-pyrrolo[2,3-b]pyridin-2-yl)-N-methylbenzamide]
- IC50 (TBK1): 7.98 nM
- IC50 (IKKε): 11.1 nM

SMILES: N#Cc1cc(-c2ccnc3[nH]c(-c4ccc(N5CCN(C6COC6)CC5)cc4)cc23)ncc1OC1CCN(C(=O)CO)CC1(F)F (stereo not drawn) [Example 176, 5-((3,3-difluoro-1-(2-hydroxyacetyl)piperidin-4-yl)oxy)-2-(2-(4-(4-(oxetan-3-yl)piperazin-1-yl)phenyl)-1H-pyrrolo[2,3-b]pyridin-4-yl)isonicotinonitrile]
- IC50 (TBK1): 1.81 nM
- IC50 (IKKε): 1.44 nM

SMILES: N#Cc1cc(-c2ccnc3[nH]c(-c4ccc(N5CCOCC5)c(F)c4)cc23)ccc1OC1CCOCC1 [Example 77, 5-(2-(3-fluoro-4-morpholinophenyl)-1H-pyrrolo[2,3-b]pyridin-4-yl)-2-((tetrahydro-2H-pyran-4-yl)oxy)benzonitrile]
- IC50 (TBK1): 10.9 nM
- IC50 (IKKε): 38 nM

SMILES: N#Cc1cc(-c2ncnc3[nH]c(-c4ccc(N5CCOCC5)cc4)nc23)ccc1OC1CCNCC1 [Example 204, 5-(8-(4-morpholinophenyl)-9H-purin-6-yl)-2-(piperidin-4-yloxy)benzonitrile]
- IC50 (TBK1): 36.8 nM
- IC50 (IKKε): 83.7 nM

SMILES: CC(C)(O)c1ccc(-c2cc3c(-c4ccc(O[C@@H]5CCNC5)c(C#N)c4)ccnc3[nH]2)cc1 [Example 151, (R)-5-(2-(4-(2-hydroxypropan-2-yl)phenyl)-1H-pyrrolo[2,3-b]pyridin-4-yl)-2-(pyrrolidin-3-yloxy)benzonitrile]
- IC50 (TBK1): 43 nM
- IC50 (IKKε): 120 nM

SMILES: N#Cc1cc(-c2ncnc3[nH]c(-c4ccc(N5CCOCC5)c(F)c4)nc23)ccc1OC1CCNCC1 [Example 244, 5-(8-(3-fluoro-4-morpholinophenyl)-9H-purin-6-yl)-2-(piperidin-4-yloxy)benzonitrile]
- IC50 (TBK1): 35.8 nM
- IC50 (IKKε): 151 nM

SMILES: COc1cc(-c2cc3c(-c4ccc(N5CC[C@@H](O)C5)c(C#N)c4)ncnc3[nH]2)ccc1N1CCN(C2COC2)CC1 [Example 142, (R)-2-(3-hydroxypyrrolidin-1-yl)-5-(6-(3-methoxy-4-(4-(oxetan-3-yl)piperazin-1-yl)phenyl)-7H-pyrrolo[2,3-d]pyrimidin-4-yl)benzonitrile]
- IC50 (TBK1): 2.03 nM
- IC50 (IKKε): 14.7 nM

SMILES: N#Cc1cc(-c2ncnc3[nH]c(-c4ccc(OCCN5CCCC5)cc4)cc23)ccc1OCC1CC1 [Example 138, 2-(cyclopropylmethoxy)-5-(6-(4-(2-(pyrrolidin-1-yl)ethoxy)phenyl)-7H-pyrrolo[2,3-d]pyrimidin-4-yl)benzonitrile]
- IC50 (TBK1): 5.88 nM
- IC50 (IKKε): 3.9 nM

SMILES: N#Cc1cc(-c2ccnc3[nH]c(-c4ccc(N5CCOCC5)cc4)cc23)ccc1N1CC(O)C1 [Example 52, 2-(3-hydroxyazetidin-1-yl)-5-(2-(4-morpholinophenyl)-1H-pyrrolo[2,3-b]pyridin-4-yl)benzonitrile]
- IC50 (TBK1): 15.6 nM
- IC50 (IKKε): 3.33 nM

SMILES: CC(C)(O)c1ccc(-c2cc3c(-c4ccc(CN5CCOCC5)c(C#N)c4)ncnc3[nH]2)cc1 [Example 111, 5-(6-(4-(2-hydroxypropan-2-yl)phenyl)-7H-pyrrolo[2,3-d]pyrimidin-4-yl)-2-(morpholinomethyl)benzonitrile]
- IC50 (TBK1): 36.9 nM
- IC50 (IKKε): 279 nM

SMILES: Cc1cc(N2CCOCC2)ccc1-c1cc2c(-c3ccc(OC4CCNCC4)c(C#N)c3)ncnc2[nH]1 [Example 120, 5-(6-(2-methyl-4-morpholinophenyl)-7H-pyrrolo[2,3-d]pyrimidin-4-yl)-2-(piperidin-4-yloxy)benzonitrile]
- IC50 (TBK1): 22.2 nM
- IC50 (IKKε): 102 nM

SMILES: N#Cc1cc(-c2ccnc3[nH]c(-c4ccc(N5CCOCC5)cc4)cc23)ccc1F [Example 58, 2-fluoro-5-(2-(4-morpholinophenyl)-1H-pyrrolo[2,3-b]pyridin-4-yl)benzonitrile]
- IC50 (TBK1): 6.06 nM
- IC50 (IKKε): > 1000 nM

SMILES: COc1cc(-c2cc3c(-c4ccc(O[C@H]5CCNC[C@H]5F)c(C#N)c4)ncnc3[nH]2)ccc1N1CCN(C2COC2)CC1 [Example 144, 2-(((3R,4S)-3-fluoropiperidin-4-yl)oxy)-5-(6-(3-methoxy-4-(4-(oxetan-3-yl)piperazin-1-yl)phenyl)-7H-pyrrolo[2,3-d]pyrimidin-4-yl)benzonitrile]
- IC50 (TBK1): 6.17 nM
- IC50 (IKKε): 64.4 nM

SMILES: N#Cc1nc(-c2ccnc3[nH]c(-c4ccc(N5CCOCC5)cc4)cc23)ccc1OC1CCOCC1 [Example 86, 6-(2-(4-morpholinophenyl)-1H-pyrrolo[2,3-b]pyridin-4-yl)-3-((tetrahydro-2H-pyran-4-yl)oxy)picolinonitrile]
- IC50 (TBK1): 3.89 nM
- IC50 (IKKε): 13.8 nM

SMILES: Cn1nccc1-c1cc2c(-c3ccc(OC4CCOCC4)c(C#N)c3)ccnc2[nH]1 [Example 181, 5-(2-(1-methyl-1H-pyrazol-5-yl)-1H-pyrrolo[2,3-b]pyridin-4-yl)-2-((tetrahydro-2H-pyran-4-yl)oxy)benzonitrile]
- IC50 (TBK1): 23.9 nM
- IC50 (IKKε): 34.8 nM

SMILES: CC(=O)N1CC(Oc2ccc(-c3ccnc4[nH]c(-c5ccc(N6CCOCC6)cc5)cc34)cc2C#N)C1 [Example 153, 2-((1-acetylazetidin-3-yl)oxy)-5-(2-(4-morpholinophenyl)-1H-pyrrolo[2,3-b]pyridin-4-yl)benzonitrile]
- IC50 (TBK1): 51.1 nM
- IC50 (IKKε): 195 nM

SMILES: N#Cc1cc(-c2ncnc3[nH]c(-c4ccc(C(=O)N5CCCC5)cc4)cc23)ccc1OC1CCN(C(=O)CO)CC1 [Example 162, 2-((1-(2-Hydroxyacetyl)piperidin-4-yl)oxy)-5-(6-(4-(pyrrolidine-1-carbonyl)phenyl)-7H-pyrrolo[2,3-d]pyrimidin-4-yl)benzonitrile]
- IC50 (TBK1): 1.48 nM
- IC50 (IKKε): 2.68 nM

SMILES: CC(C)(O)c1ccc(-c2nc3c(-c4ccc(OC5CCOCC5)c(C#N)c4)ncnc3[nH]2)cc1 [Example 228, 5-(8-(4-(2-hydroxypropan-2-yl)phenyl)-9H-purin-6-yl)-2-((tetrahydro-2H-pyran-4-yl)oxy)benzonitrile]
- IC50 (TBK1): 1.62 nM
- IC50 (IKKε): 14.5 nM

SMILES: N#Cc1cc(-c2ncnc3[nH]c(-c4ccc(N5CCOCC5)cc4)cc23)ccc1CN1CCCC1=O [Example 115, 5-(6-(4-morpholinophenyl)-7H-pyrrolo[2,3-d]pyrimidin-4-yl)-2-((2-oxopyrrolidin-1-yl)methyl)benzonitrile]
- IC50 (TBK1): 45.7 nM
- IC50 (IKKε): 1000 nM

SMILES: COc1ccc(-c2cc3c(-c4ccc(OC5CCN(C(=O)CO)CC5)c(C#N)c4)ncnc3[nH]2)cc1 [Example 126, 2-((1-(2-hydroxyacetyl)piperidin-4-yl)oxy)-5-(6-(4-methoxyphenyl)-7H-pyrrolo[2,3-d]pyrimidin-4-yl)benzonitrile]
- IC50 (TBK1): 1.34 nM
- IC50 (IKKε): 3.29 nM

SMILES: CC(O)C(=O)N1CC[C@@H](Oc2ccc(-c3ccnc4[nH]c(-c5ccc(N6CCOCC6)cc5)cc34)cc2C#N)C1 (stereo partly drawn) [Example 27, 2-(((3R)-1-(2-hydroxypropanoyl)pyrrolidin-3-yl)oxy)-5-(2-(4-morpholinophenyl)-1H-pyrrolo[2,3-b]pyridin-4-yl)benzonitrile]
- IC50 (TBK1): 6.54 nM
- IC50 (IKKε): 13.4 nM

SMILES: CN(C)C(=O)/C=C/c1cc2c(-c3ccc(OC4CCOCC4)c(C#N)c3)ccnc2[nH]1 [Example 179, 3-(4-(3-cyano-4-((tetrahydro-2H-pyran-4-yl)oxy)phenyl)-1H-pyrrolo[2,3-b]pyridin-2-yl)-N,N-dimethylacrylamide]
- IC50 (TBK1): 103 nM
- IC50 (IKKε): 69.8 nM

SMILES: N#Cc1cc(-c2ncnc3[nH]c(-c4ccc(N5CCOCC5)cc4)nc23)ccc1OC1CCN(S(N)(=O)=O)CC1 [Example 262, 4-(2-cyano-4-(8-(4-morpholinophenyl)-9H-purin-6-yl)phenoxy)piperidine-1-sulfonamide]
- IC50 (TBK1): 2.08 nM
- IC50 (IKKε): 4.22 nM

SMILES: CC(C)(C)OC(=O)N1CC[C@@H](Oc2ccc(-c3ncnc4[nH]c(-c5ccc(N6CCOCC6)cc5)nc34)cc2C#N)C1 [Example 206, (R)-tert-butyl 3-(2-cyano-4-(8-(4-morpholinophenyl)-9H-purin-6-yl)phenoxy)pyrrolidine-1-carboxylate]
- IC50 (TBK1): > 1000 nM
- IC50 (IKKε): > 1000 nM

SMILES: N#Cc1cc(-c2ncnc3[nH]c(-c4ccc(N5CCOCC5)nc4)nc23)ccc1OC1CCOCC1 [Example 243, 5-(8-(6-morpholinopyridin-3-yl)-9H-purin-6-yl)-2-((tetrahydro-2H-pyran-4-yl)oxy)benzonitrile]
- IC50 (TBK1): 11.6 nM
- IC50 (IKKε): 1000 nM
